What follows are cell lines tested with CC(C)=CC[C@@H](O)C1=CC(=O)c2c(O)ccc(O)c2C1=O [Shikonin] + CC1(C)CCC(c2ccc(Cl)cc2)=C(CN2CCN(c3ccc(C(=O)NS(=O)(=O)c4ccc(N[C@H](CCN5CCOCC5)CSc5ccccc5)c(S(=O)(=O)C(F)(F)F)c4)cc3)CC2)C1 [Navitoclax] (partner 0.5 µM) (assay: relative viability (nuclei count vs DMSO), 5 days (fraction); higher = more cells survive). Conditions: first compound 0.01 µM.
Summary of the method: (§1)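 Cells from lung cancer lines were seeded into 1536-well plates and, one day later, dosed by pin tool. Treatments were either a single drug or a fixed dose of an anchor drug with five library-drug doses (not always all listed) in √10 steps. After 5 days, nuclei were stained in a one-step fixation (final 0.05% Triton X-100, 1% formaldehyde, 1 ug/ml Hoechst) and counted on 4× images, and relative viability is the treated-to-vehicle nuclei ratio, as the median of duplicate plates.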
Cell Line NCI-H2085 has a relative viability of 1.08. Work on HCC-15 yielded a relative viability of 0.742. NCI-H1793 was tested, and the relative viability was 0.43. RERF-LC-KJ showed a relative viability of 0.835. With EKVX the relative viability was 0.828. For LC-2-ad, the relative viability was 0.493. Work on NCI-H1944 yielded a relative viability of 0.988. NCI-H1975 was tested, and the relative viability was 1.16. SW 1573 showed a relative viability of 1.2. SK-LU-1 showed a relative viability of 0.966.

Same assay, conditions: first compound 0.1 µM
In the case of NCI-H2085, the relative viability is reported as 1.09. HCC-15 showed a relative viability of 0.655. In the case of NCI-H1793, the relative viability is reported as 0.379. RERF-LC-KJ gave a relative viability of 0.996. Work on EKVX yielded a relative viability of 0.897. Work on LC-2-ad yielded a relative viability of 0.413. In the case of NCI-H1944, the relative viability is reported as 1.1. NCI-H1975 gave a relative viability of 1.37. Work on SW 1573 yielded a relative viability of 1.13. SK-LU-1 was tested, and the relative viability was 0.972.

Same assay, conditions: first compound 0.3162 µM
In the case of NCI-H2085, the relative viability is reported as 1.13. Cell Line HCC-15 has a relative viability of 0.784. With NCI-H1793 the relative viability was 0.407. Work on RERF-LC-KJ yielded a relative viability of 0.758. In the case of EKVX, the relative viability is reported as 1.21. Work on LC-2-ad yielded a relative viability of 0.552. With NCI-H1944 the relative viability was 1.08. In the case of NCI-H1975, the relative viability is reported as 1.33. With SW 1573 the relative viability was 1.01. SK-LU-1 showed a relative viability of 1.08.

Same assay, conditions: first compound 1 µM
NCI-H2085 showed a relative viability of 0.664. HCC-15 was tested, and the relative viability was 0.747. NCI-H1793 gave a relative viability of 0.76. With RERF-LC-KJ the relative viability was 1.11. For EKVX, the relative viability was 0.903. LC-2-ad was tested, and the relative viability was 0.465. NCI-H1944 gave a relative viability of 1.14. For NCI-H1975, the relative viability was 0.91. SW 1573 was tested, and the relative viability was 0.869. SK-LU-1 gave a relative viability of 0.589.

These cell lines were tested with CC(C)N(CCCNC(=O)Nc1ccc(C(C)(C)C)cc1)C[C@H]1O[C@@H](n2ccc3c(N)ncnc32)[C@H](O)[C@@H]1O + CC1(C)CCC(c2ccc(Cl)cc2)=C(CN2CCN(c3ccc(C(=O)NS(=O)(=O)c4ccc(N[C@H](CCN5CCOCC5)CSc5ccccc5)c(S(=O)(=O)C(F)(F)F)c4)cc3)CC2)C1 [Navitoclax] (partner 0.5 µM) in the same assay as above. Conditions: first compound 0.08 µM.
Summary of the method: as §1
Work on NCI-H2085 yielded a relative viability of 1.11. Cell Line HCC-15 has a relative viability of 0.653. Work on NCI-H1793 yielded a relative viability of 0.487. With RERF-LC-KJ the relative viability was 0.717. EKVX showed a relative viability of 0.905. LC-2-ad was tested, and the relative viability was 0.612. NCI-H1944 was tested, and the relative viability was 0.982. With NCI-H1975 the relative viability was 0.978. Cell Line SW 1573 has a relative viability of 1.04. Work on SK-LU-1 yielded a relative viability of 0.688.

Same assay, conditions: first compound 0.253 µM
For NCI-H2085, the relative viability was 1.11. In the case of HCC-15, the relative viability is reported as 0.717. With RERF-LC-KJ the relative viability was 1.06. Cell Line EKVX has a relative viability of 0.974. With LC-2-ad the relative viability was 0.409. NCI-H1944 gave a relative viability of 0.983. Work on NCI-H1975 yielded a relative viability of 1.18. Work on SW 1573 yielded a relative viability of 1.06. With SK-LU-1 the relative viability was 0.762.

Same assay, conditions: first compound 0.8 µM
For NCI-H2085, the relative viability was 1.18. HCC-15 was tested, and the relative viability was 0.733. Cell Line NCI-H1793 has a relative viability of 0.393. For RERF-LC-KJ, the relative viability was 1.03. In the case of EKVX, the relative viability is reported as 0.976. Cell Line LC-2-ad has a relative viability of 0.435. With NCI-H1944 the relative viability was 0.988. Work on NCI-H1975 yielded a relative viability of 1.17. For SW 1573, the relative viability was 1.09. In the case of SK-LU-1, the relative viability is reported as 0.86.

Same assay, conditions: first compound 2.53 µM
Cell Line NCI-H2085 has a relative viability of 1.33. For HCC-15, the relative viability was 0.707. Cell Line NCI-H1793 has a relative viability of 0.505. In the case of RERF-LC-KJ, the relative viability is reported as 0.931. Cell Line EKVX has a relative viability of 0.95. LC-2-ad was tested, and the relative viability was 0.458. In the case of NCI-H1944, the relative viability is reported as 1.05. For NCI-H1975, the relative viability was 0.923. Cell Line SW 1573 has a relative viability of 1.15. Work on SK-LU-1 yielded a relative viability of 1.06.

Same assay, conditions: first compound 8 µM
Cell Line NCI-H2085 has a relative viability of 1.15. HCC-15 gave a relative viability of 0.673. Work on NCI-H1793 yielded a relative viability of 0.357. For RERF-LC-KJ, the relative viability was 0.822. EKVX showed a relative viability of 0.915. LC-2-ad gave a relative viability of 0.462. For NCI-H1944, the relative viability was 1.02. NCI-H1975 showed a relative viability of 0.835. In the case of SW 1573, the relative viability is reported as 1.09. In the case of SK-LU-1, the relative viability is reported as 0.557.

These cell lines were tested with CC(C)N(CCCNC(=O)Nc1ccc(C(C)(C)C)cc1)C[C@H]1O[C@@H](n2ccc3c(N)ncnc32)[C@H](O)[C@@H]1O + COc1cc2c(Oc3ccc(NC(=O)C4(C(=O)Nc5ccc(F)cc5)CC4)cc3F)ccnc2cc1OCCCN1CCOCC1 [Foretinib] (partner 0.25 µM) in the same assay as above. Conditions: first compound 0.08 µM.
Summary of the method: as §1
In the case of NCI-H2085, the relative viability is reported as 0.957. Work on HCC-15 yielded a relative viability of 0.948. Work on NCI-H1793 yielded a relative viability of 0.709. Cell Line RERF-LC-KJ has a relative viability of 0.906.

— the supplement of paper PMC10307832
